# Reference: ChEMBL document CHEMBL1201862, “PubChem BioAssay data set” (2004)
# The source made the active and inactive calls.
# Experiments:
# cells [1] = assay type: functional, cell-based
# cells [2] = assay type: functional, cell-based; remark: listed apart in the source
# [3] = target: Heat shock protein HSP 90-alpha (Homo sapiens, UniProt P07900); assay type: functional, organism-based
# [4] = target: T1, Ubiquitin-conjugating enzyme E2 N (Homo sapiens, UniProt P61088); assay type: functional;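 also: Dose-response confirmation in a TR-FRET assay detecting UBC13-driven polyubiquitin chain formation, inhibition measured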
# T1 sequence (P61088 whole entry): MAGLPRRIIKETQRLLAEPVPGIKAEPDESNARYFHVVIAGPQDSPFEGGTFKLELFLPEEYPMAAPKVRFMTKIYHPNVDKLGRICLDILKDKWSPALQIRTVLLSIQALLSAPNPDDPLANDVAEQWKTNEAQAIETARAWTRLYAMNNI
# SN12K1 = assay: cells; assay type: functional; conditions: Homo sapiens
# P388 = assay: cells; assay type: functional; conditions: Mus musculus;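 also: compound exposure lasted 48 hours before growth was measured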
# [5] = inhibitors of intracellular T. cruzi replication, confirmation, NIH3T3 host cells, beta-gal luminescence (AID 2044); assay type: functional, cell-based;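 also: intracellular parasites grown in NIH/3T3 mouse fibroblasts as host cells; luminescent beta-galactosidase reporter signal from transgenic T. cruzi replicating inside host cells; inhibitors lower the luminescence signal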
# [6] = NIH-3T3 fibroblast cytotoxicity, dose response, cytotoxicity control, cell-based, fluorescence, Alamar Blue, secondary assay (AID 2327); assay type: functional;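 also: NIH-3T3 mouse fibroblasts cultured with fluconazole at 8 µg/mL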
# [7] = C. albicans growth with fluconazole, confirmation, fluorescence, retest (AID 2467); assay type: functional, cell-based
# [8] = cytotoxicity toward NIH3T3 fibroblasts, dose response, counter-screen, cell-based, ATP luminescence, mouse fibroblasts (AID 2010); assay type: functional;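 also: cells exposed to compound for about 90 hours before reading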
# Fatty acid synthase = Fatty acid synthase (Homo sapiens, UniProt P49327); assay: FAS thioesterase domain inhibitors, dose response, biochemical, kinetic fluorescence intensity (AID 624326); assay type: functional;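 also: rate of fluorescence rise from hydrolysis of a fluorogenic O-methyl fluorescein ester substrate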
# Chain of Fatty acid synthase (P49327 whole entry, the tested form may be a part): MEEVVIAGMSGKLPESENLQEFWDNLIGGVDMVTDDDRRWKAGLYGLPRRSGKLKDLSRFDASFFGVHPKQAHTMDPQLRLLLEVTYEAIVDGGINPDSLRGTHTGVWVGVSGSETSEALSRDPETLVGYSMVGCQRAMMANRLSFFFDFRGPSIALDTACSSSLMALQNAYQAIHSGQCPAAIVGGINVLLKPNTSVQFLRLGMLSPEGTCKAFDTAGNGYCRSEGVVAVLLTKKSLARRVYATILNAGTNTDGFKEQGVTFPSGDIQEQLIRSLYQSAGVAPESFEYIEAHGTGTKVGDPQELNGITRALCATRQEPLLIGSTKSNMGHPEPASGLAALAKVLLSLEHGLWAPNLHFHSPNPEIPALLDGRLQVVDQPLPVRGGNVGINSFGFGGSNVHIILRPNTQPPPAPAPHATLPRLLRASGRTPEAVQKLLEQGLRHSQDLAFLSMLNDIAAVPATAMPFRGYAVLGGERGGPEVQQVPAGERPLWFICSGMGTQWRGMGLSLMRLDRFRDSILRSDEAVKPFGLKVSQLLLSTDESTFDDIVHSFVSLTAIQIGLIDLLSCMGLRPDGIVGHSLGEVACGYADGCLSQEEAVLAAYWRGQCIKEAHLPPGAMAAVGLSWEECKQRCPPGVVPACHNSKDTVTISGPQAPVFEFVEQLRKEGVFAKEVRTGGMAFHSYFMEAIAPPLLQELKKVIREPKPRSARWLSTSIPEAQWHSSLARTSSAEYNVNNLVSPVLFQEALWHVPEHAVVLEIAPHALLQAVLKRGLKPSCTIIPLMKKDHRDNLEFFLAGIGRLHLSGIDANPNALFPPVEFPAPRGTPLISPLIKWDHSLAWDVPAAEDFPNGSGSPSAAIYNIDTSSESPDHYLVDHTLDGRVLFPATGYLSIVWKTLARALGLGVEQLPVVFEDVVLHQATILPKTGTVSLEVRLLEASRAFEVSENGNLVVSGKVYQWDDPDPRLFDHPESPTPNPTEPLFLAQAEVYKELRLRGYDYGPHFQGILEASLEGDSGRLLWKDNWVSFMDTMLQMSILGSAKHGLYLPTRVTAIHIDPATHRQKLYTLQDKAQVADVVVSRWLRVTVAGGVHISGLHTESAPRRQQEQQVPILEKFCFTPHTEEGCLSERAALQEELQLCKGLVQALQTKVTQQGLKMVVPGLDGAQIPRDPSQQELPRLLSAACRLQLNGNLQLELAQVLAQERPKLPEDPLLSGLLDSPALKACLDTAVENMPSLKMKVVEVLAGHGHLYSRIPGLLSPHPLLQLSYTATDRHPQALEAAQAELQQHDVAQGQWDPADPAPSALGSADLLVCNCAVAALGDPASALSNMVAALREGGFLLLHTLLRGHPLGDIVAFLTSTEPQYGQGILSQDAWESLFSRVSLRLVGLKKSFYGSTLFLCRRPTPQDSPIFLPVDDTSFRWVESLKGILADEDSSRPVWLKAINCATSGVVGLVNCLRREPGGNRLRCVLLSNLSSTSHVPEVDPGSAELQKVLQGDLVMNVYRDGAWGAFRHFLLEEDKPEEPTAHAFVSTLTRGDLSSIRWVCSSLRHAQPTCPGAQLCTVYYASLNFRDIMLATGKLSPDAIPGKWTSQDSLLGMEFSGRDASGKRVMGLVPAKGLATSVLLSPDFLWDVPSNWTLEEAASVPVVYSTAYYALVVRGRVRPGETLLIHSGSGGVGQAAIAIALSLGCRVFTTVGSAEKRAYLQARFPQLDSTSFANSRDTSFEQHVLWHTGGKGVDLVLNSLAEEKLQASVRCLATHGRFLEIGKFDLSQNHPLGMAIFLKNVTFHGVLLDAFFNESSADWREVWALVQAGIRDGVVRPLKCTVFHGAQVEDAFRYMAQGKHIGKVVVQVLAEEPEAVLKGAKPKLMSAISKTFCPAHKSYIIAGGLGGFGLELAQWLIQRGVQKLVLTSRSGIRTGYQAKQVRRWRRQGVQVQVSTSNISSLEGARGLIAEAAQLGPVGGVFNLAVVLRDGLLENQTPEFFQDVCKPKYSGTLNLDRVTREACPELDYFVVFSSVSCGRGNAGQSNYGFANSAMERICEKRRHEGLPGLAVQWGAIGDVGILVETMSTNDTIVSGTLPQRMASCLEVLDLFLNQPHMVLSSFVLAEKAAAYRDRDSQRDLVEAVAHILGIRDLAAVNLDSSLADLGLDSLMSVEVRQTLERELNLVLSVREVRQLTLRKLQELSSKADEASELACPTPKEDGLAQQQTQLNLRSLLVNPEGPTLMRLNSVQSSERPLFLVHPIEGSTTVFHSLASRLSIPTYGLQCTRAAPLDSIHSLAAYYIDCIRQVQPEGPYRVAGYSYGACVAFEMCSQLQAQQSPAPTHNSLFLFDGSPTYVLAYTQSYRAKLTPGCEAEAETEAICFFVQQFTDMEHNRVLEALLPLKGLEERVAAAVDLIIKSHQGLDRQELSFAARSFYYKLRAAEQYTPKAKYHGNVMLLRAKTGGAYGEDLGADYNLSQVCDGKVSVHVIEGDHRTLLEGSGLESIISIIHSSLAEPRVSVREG
# [9] = inhibitors of clade B AD8 Env fusion, dose response, cell-based, cherry-pick (AID 652062); assay type: functional;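 also: luciferase signal from cell-cell fusion driven by HIV-1 clade B AD8 Env; potency is for inhibitors of fusion seen as a drop in luminescence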
# [10] = inhibitors of HIV Env-driven cell fusion, dose response, cherry-pick (AID 652057); assay type: functional, cell-based
# [11] = off-target signal loss in HeLa-CEM21 co-culture – HeLa F-luc CTL cells, cherry-picked, counter-screen for HIV-1 Env fusion inhibitor project, dose response (AID 652040); assay type: functional, cell-based;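 also: potency for signal decrease marking cytotoxic or nonspecific inhibition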
# INS1 = assay: beta cell apoptosis inhibitors, cytokine rescue, dose response, luminescence, retest (AID 449756); assay type: functional, cell-based; conditions: Rattus norvegicus;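 also: cell death triggered by IL-1 beta plus TNF-alpha plus IFN-gamma mixture; protective hits raise ATP signal compared with cytokine alone wells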
# [12] = Luminescence Cell-Based Dose Retest to Confirm Inhibitors of Cancer Stem Cells. [Related pubchem assays (depositor defined):AID2717, AID2721]; assay type: functional; conditions: Homo sapiens
# Paired box protein Pax-8 = Paired box protein Pax-8 (Homo sapiens, UniProt Q06710); assay: inhibitors of PAX8-driven TPO luciferase reporter, dose response, RMG-I cells, cherry-pick (AID 687027); assay type: functional, cell-based;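 also: luciferase reporter driven by Pax8 target thyroperoxidase promoter measured by SteadyGlo luminescence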
# Chain of Paired box protein Pax-8 (Q06710 whole entry): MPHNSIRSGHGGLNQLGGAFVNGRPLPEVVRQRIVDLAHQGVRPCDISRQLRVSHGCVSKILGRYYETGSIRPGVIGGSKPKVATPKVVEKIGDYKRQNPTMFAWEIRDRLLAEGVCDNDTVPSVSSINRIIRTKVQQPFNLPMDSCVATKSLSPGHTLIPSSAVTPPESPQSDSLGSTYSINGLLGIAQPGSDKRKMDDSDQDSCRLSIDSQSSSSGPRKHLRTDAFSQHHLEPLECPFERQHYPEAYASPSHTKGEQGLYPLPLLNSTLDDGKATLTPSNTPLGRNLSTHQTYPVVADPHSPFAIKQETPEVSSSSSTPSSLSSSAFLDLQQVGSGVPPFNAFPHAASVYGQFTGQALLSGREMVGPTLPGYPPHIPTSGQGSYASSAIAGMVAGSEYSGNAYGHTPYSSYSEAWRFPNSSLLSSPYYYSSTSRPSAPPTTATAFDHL
# [13] = Shn3 3'UTR reporter inhibitors, dose response, cell-based, Clone20 osteoblasts, firefly luciferase, cherry-picked (AID 624132); assay type: functional;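 also: firefly luciferase luminescence from reporter carrying the Shn3 3'UTR in osteoblasts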
# [14] = control 3'UTR Renilla luciferase suppression, dose response, counter-screen for Shn3 inhibitor project, cell-based, Clone20-Shn3RL, cherry-picked (AID 624133); assay type: functional
# [15] = target: T2, Microphthalmia-associated transcription factor (Homo sapiens, UniProt O75030); assay: TRPM1 promoter luciferase signal decrease, dose response, MITF inhibitor project, cell-based, SK-MEL-5, cherry-picked, set 3 (AID 493073); assay type: functional
# T2 sequence (O75030 whole entry): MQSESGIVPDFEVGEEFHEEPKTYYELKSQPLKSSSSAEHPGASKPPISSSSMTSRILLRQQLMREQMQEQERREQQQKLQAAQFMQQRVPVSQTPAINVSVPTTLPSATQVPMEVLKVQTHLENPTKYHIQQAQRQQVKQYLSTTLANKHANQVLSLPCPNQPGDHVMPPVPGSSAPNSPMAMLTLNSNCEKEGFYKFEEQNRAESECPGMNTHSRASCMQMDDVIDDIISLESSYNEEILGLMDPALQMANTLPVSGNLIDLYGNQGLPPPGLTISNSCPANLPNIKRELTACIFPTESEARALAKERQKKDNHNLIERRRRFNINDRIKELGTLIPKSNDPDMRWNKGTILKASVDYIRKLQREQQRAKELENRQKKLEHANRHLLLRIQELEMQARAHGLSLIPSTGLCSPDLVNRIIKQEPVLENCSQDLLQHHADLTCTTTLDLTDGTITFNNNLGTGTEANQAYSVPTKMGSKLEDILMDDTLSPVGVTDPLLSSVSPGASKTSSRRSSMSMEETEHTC
# [16] = growth suppression of PTEN-null colon cells, dose response, cell-based, HCT116 PTEN knockout (AID 1047); assay type: functional;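 also: HCT116 colon tumor cells with PTEN knocked out; cells exposed to compound for 60 hours before readout; potency for loss of cell viability measured by luminescence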
# [17] = growth suppression of beta-catenin-knockout colon cells, dose response, cell-based, HCT116, human colon tumor (AID 1045); assay type: functional;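 also: HCT116 colon tumor cells with beta catenin knocked out; cells exposed to compound for 60 hours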
# [18] = target: T3, Replicative DNA helicase DnaB (Mycobacterium tuberculosis, UniProt P9WMR3); assay: DnaB intein splicing inhibitors, dose response, biochemical, cell-free fluorescence (AID 449749); assay type: functional
# T3 sequence (P9WMR3 whole entry): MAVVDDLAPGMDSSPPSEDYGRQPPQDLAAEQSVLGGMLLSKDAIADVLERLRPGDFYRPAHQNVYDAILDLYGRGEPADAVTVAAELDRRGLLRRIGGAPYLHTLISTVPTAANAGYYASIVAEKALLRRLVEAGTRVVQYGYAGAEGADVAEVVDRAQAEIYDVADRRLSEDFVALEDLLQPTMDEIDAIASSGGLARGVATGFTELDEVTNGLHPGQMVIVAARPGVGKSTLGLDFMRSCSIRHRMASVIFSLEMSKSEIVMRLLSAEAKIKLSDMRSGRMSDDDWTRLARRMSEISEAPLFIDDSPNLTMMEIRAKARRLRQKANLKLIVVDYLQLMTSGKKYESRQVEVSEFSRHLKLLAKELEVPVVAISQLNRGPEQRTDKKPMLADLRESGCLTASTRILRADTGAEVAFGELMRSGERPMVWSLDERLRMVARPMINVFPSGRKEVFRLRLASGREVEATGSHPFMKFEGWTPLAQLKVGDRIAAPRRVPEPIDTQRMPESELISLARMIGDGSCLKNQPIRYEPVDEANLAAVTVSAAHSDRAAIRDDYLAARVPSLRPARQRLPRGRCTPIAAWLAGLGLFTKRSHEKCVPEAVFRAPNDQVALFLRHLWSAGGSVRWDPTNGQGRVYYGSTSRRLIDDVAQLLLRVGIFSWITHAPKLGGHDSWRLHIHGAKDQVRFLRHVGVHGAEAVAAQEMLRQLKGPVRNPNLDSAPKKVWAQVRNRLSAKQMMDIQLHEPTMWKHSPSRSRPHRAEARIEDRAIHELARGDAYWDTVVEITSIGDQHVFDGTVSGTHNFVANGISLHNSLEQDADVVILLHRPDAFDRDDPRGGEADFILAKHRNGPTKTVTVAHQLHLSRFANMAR
# [19] = target: T4, Heat shock factor protein 1 (Mus musculus, UniProt P38532); assay: HSF1 potentiators in luciferase reporter cells, confirmation, cell-based, NIH3T3, luminescence, dose retest (AID 435004); assay type: functional;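 also: stress induced by proteasome inhibitor MG132 added 30 min after compound; luciferase reporter driven by HSF1 response element in NIH3T3 cells; actives raise luminescence as potentiators of the MG132 stress response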
# T4 sequence (P38532 whole entry): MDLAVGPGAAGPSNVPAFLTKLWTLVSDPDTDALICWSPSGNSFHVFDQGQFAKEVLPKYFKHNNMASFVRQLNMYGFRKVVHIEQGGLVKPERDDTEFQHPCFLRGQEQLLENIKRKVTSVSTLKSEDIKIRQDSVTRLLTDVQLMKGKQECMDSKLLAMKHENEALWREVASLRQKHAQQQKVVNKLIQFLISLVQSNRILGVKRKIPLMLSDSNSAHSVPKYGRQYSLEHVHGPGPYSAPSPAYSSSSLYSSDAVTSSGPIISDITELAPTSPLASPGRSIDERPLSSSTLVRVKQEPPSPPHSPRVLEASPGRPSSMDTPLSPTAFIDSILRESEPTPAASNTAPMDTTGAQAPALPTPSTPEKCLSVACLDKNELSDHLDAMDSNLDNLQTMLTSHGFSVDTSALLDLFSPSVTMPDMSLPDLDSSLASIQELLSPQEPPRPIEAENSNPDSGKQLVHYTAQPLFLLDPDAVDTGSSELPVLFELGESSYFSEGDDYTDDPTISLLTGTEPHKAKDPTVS
# Protein RecA = target: T5, Protein RecA (Mycobacterium tuberculosis, UniProt P9WHJ3); assay: Fluorescence Cell-Free Homogeneous Dose Retest to Identify Inhibitors of RecA-Intein Splicing Activity. [Related pubchem assays (depositor defined):AID2097, AID2223, AID489010, AID492950]; assay type: functional
# T5 sequence (P9WHJ3 whole entry): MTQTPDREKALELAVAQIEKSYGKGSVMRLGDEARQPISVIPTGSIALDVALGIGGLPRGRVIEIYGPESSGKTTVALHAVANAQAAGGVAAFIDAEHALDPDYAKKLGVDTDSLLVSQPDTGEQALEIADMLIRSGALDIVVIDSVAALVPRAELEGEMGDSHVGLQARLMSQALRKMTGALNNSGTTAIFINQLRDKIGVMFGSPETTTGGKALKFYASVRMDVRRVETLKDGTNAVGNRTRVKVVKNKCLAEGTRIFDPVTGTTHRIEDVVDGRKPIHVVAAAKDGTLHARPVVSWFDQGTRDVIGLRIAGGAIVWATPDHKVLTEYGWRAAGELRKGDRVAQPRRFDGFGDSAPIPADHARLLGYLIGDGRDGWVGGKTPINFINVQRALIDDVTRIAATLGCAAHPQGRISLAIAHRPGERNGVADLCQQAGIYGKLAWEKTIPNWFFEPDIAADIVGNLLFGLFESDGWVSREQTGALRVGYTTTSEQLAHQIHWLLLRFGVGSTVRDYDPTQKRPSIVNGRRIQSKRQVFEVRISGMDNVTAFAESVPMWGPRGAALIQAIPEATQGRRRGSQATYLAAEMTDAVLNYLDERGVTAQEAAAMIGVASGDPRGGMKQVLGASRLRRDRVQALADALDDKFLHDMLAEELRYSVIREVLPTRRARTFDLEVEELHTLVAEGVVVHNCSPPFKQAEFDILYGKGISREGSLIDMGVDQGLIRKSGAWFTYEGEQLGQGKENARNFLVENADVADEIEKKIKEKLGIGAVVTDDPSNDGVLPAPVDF
# [20] = ZM109 Env clade C HIV-1 fusion inhibitors, dose response, HeLa effector, CEM target cells, luciferase, cherry-pick (AID 652058); assay type: functional, cell-based
smiles,measurement,setting,value
CCOc1ccc(C(=O)NC(=S)Nc2cccc(NC(=O)c3ccco3)c2)cc1[N+](=O)[O-],EC50,cells [1],> 350 µM (not active)
same,EC50,cells [2],> 350 µM (not active)
O=S(=O)(NC1CC2CCC1C2)c1ccc(Cl)cc1 (stereo not drawn),AC50,[3],0.538 µM (active)
COC(=O)c1ccccc1S(=O)(=O)N1CCC(C(=O)N2CCC2)CC1,IC50,[4],> 20 µM (inactive)
COc1ccc2[nH]c(-c3cccc(N)c3)nc2c1,EC50,cells [1],> 350 µM (not active)
same,EC50,cells [2],6.92 µM (active)
N/C(S)=N/N=C/c1ccc(O)cn1,GI50,SN12K1,3.61 µM (inactive)
same,GI50,P388,1.95 µM (inactive)
O=C(O)/C=C/c1cnn(-c2ccccc2)c1,EC50,cells [1],> 350 µM (not active)
same,EC50,cells [2],2.39 µM (active)
NC(S)=Nc1nc2ccccc2nc1O,IC50,[4],> 20 µM (inactive)
O=C(Nc1nc(-c2ccccn2)cs1)c1cc2ccccc2o1,EC50,[5],1.46 µM (active)
same,AC50,[3],4.49 µM (active)
same,EC50,[6],20.5 µM (active)
same,EC50,[7],1.49 µM (active)
same,EC50,[8],9.05 µM (active)
O=C(COc1ccccc1)Nc1nc(-c2ccc(S(=O)(=O)N3CCOCC3)cc2)cs1,IC50,Fatty acid synthase,0.489 µM (active)
CCOC(=O)c1cccc(NS(=O)(=O)c2ccc(NC(C)=O)cc2)c1,AC50,[9],10 µM (active)
same,AC50,[10],4.26 µM (active)
same,AC50,[11],39.7 µM (active)
COC(=O)c1cc(=O)n(CCc2ccccc2F)/c(=N/c2ccc(F)c(Cl)c2)s1,AC50,INS1,8.13 µM (active)
CC(C)OCCCN=C(S)N1CCC(C(=O)c2ccc(Cl)cc2)CC1,AC50,INS1,36.9 µM (active)
CC(=O)Nc1cc2c(cc1Br)OCCO2,EC50,cells [1],> 350 µM (not active)
same,EC50,cells [2],> 350 µM (not active)
CN(C)C(=O)CSc1nc2ccccc2n1Cc1ccccc1,EC50,cells [1],> 350 µM (not active)
same,EC50,cells [2],> 350 µM (not active)
CC[C@@H](C)[C@@H]1CN([C@@H](C)CN2CCC[C@H]2CN2C(N)=NC[C@@H]2Cc2ccccc2)C(=N)N1CCc1ccc(Cl)c(Cl)c1,IC50,[4],> 20 µM (inactive)
COc1ccc(C)c2sc(N(CCCN(C)C)C(=O)c3ccc(S(=O)(=O)N(C)C)cc3)nc12,IC50,[4],> 20 µM (inactive)
COc1ccc(CCNc2ccc(C(CC(N)=O)NC(=O)c3ccc(Br)cc3)cc2[N+](=O)[O-])cc1 (stereo not drawn),AC50,INS1,12.9 µM (active)
same,AC50,[12],5.51 µM (active)
Nc1c(/N=N/c2ccc(-c3ccc(/N=N/c4c(O)ccc5cc(S(=O)(=O)O)cc(S(=O)(=O)O)c45)cc3)cc2)c(S(=O)(=O)O)cc2cc(S(=O)(=O)O)c(/N=N/c3ccccc3)c(O)c12,GI50,SN12K1,> 100 µM (inactive)
same,GI50,P388,> 100 µM (inactive)
Cc1ccc2nc(-c3cccc(NS(C)(=O)=O)c3)cc(-c3ccccc3)c2c1,AC50,[3],4.75 µM (active)
same,AC50,[12],4.13 µM (active)
COC(=O)C1=C(c2ccc(F)cc2OCc2ccccc2)C[C@@H]2CC[C@H]1N2C(=O)NC1Cc2ccccc2C1,AC50,Paired box protein Pax-8,9.27 µM (active)
same,AC50,[13],8 µM (active)
same,AC50,[14],29.3 µM (active)
CC(C(=O)NC1CCCC1)N(C(=O)c1snc(C(N)=O)c1N)c1ccc2c(c1)OCCO2 (stereo not drawn),IC50,[4],> 20 µM (inactive)
COc1ccc(NC(=O)CCC(=O)N/N=C/c2ccc([N+](=O)[O-])s2)cc1,AC50,[3],2.7 µM (active)
same,AC50,[15],7.62 µM (active)
same,EC50,[16],11.5 µM (active)
same,EC50,[17],11.3 µM (active)
Cc1cc(C(=O)c2ccc(C(C)(C)C)cc2)c(NC(=O)CCl)s1,AC50,[18],7.58 µM (active)
same,EC50,[19],7.73 µM (active)
same,EC50,[16],9.12 µM (active)
same,EC50,Protein RecA,2.97 µM (active)
same,EC50,[17],8.47 µM (active)
CC(C)CCSc1nc(N)c(C#N)cc1C#N,EC50,[5],0.542 µM (active)
same,AC50,[9],25.6 µM (active)
same,AC50,[10],26.2 µM (active)
same,AC50,[20],32.3 µM (active)
same,AC50,[11],23.4 µM (active)
same,EC50,[8],> 60 µM (not active)
